According to paper PMC11822664, “First‐In‐Human Dose Finding Study of Venadaparib (IDX‐1197), a Potent and Selective PARP Inhibitor, in Patients With Advanced Solid Tumors” (Cancer Medicine, 2025):
pIC50: −log10 of the molar value.

Key:
TOV‐21G = test system: TOV‐21G; parameters: method as in PMID 36808277; details: HR-deficient ovarian cancer cell line TOV-21G ref 21; cited from earlier work
OVCAR4 = test system: OVCAR4; parameters: method as in PMID 36808277; details: wild-type BRCA1/2 cell line OVCAR4 ref 21; cited from earlier work
PARP = experiment: Pharmacodynamics: Poly (ADP-ribose) in tumor-tissue lysates (ELISA); type: in vivo, human
Procedure: (§1) Pharmacokinetic and pharmacodynamic studies were performed during the first cycle of treatment. Plasma samples were analyzed for venadaparib concentration using liquid‐liquid extraction followed by high‐performance liquid chromatography, with detection by mass spectrometry. The plasma concentration–time data were analyzed using noncompartmental analysis (WinNonLin, version 8.0, SAS version 9.4 and R version 3.6.3) to derive pharmacokinetic parameters after the first dose (single‐dose parameters) and after the dose on Day 14 (multiple‐dose parameters). Pharmacodynamic studies were performed by evaluating Poly (ADP‐ribose) in peripheral blood mononuclear cells and quantifying tumor‐tissue lysates using the HT PARP in vivo Pharmacodynamic ELISA Kit II (R&D Systems, 4520‐096‐K).

[1] = Plasma pharmacokinetics, noncompartmental analysis (Day 1 and Day 14); type: in vivo, human; details: for AUCinf / AUClast / Cmax / T1/2β / Vz / Tmax: day 1; for Tmax: median (min-max)
Procedure: as §1

[2] = Cohort 1: 2 mg once daily, 2 weeks on 1 week off, n=3, mean±SD
[3] = Cohort 2: 5 mg once daily, 2 weeks on 1 week off, n=3, mean±SD
[4] = Cohort 3: 10 mg once daily, 2 weeks on 1 week off, n=3, mean±SD
[5] = Cohort 4: 20 mg once daily, 2 weeks on 1 week off, n=3, mean±SD
[6] = Cohort 5: 20 mg once daily continuously, n=3, mean±SD
[7] = Cohort 6: 40 mg once daily continuously, n=3, mean±SD
[8] = Cohort 7: 80 mg once daily continuously, n=3, mean±SD
[9] = Cohort 8: 120 mg once daily continuously, n=3, mean±SD
[10] = Cohort 9: 160 mg once daily continuously, n=4, mean±SD
[11] = Cohort 10: 240 mg once daily continuously, n=3, mean±SD

## O=C(c1cc(Cc2n[nH]c(=O)c3ccccc23)ccc1F)N1CC(CNC2CC2)C1 [venadaparib, Venadaparib]
TOV‐21G
  pIC50: > 8.00
OVCAR4
  pIC50: 7.64
PARP; from 10 mg/d, based on tumor samples
  PAR inhibitory effect: ≥ 90%
PARP; patients receiving 10, 20 and 40 mg once daily
  PARP inhibition in tissue biopsies: Significant PARP inhibition
[1]; after 14 days of daily administration
  average increase in drug exposure: 99%
[1]; after initiation of daily dosing
  Time to steady state: approximately 2 weeks
[1]; [2]
  AUCinf: 780.62±401.58 (51.4%) [318.42-043.92] h*ug/L
  AUClast: 593.00±274.64 (46.3%) [291.48-828.86] h*ug/L
  Cmax: 84.50±54.00 (63.9%) [33.40-141.00] ng/mL
  T1/2β: 11.64±4.54 (39.0%) [6.72-15.66] h
  Vz: 47.20±13.15 (27.8%) [34.62-60.85] L
[1]; Cohort 1: 2 mg once daily, 2 weeks on 1 week off, n=3
  Tmax: 1.92 (1.03-1.97) h
[1]; [3]
  AUCinf: 1827.86±1666.87 (84.7%) [33.40-141.00] h*ug/L
  AUClast: 1340.46±1006.85 (84.7%) [33.40-141.00] h*ug/L
  Cmax: 180.00±48.57 (27.0%) [133.00-230.00] ng/mL
  T1/2β: 10.52±3.54 (33.7%) [6.97-14.06] h
  Vz: 57.08±26.96 (84.7%) [33.40-141.00] L
[1]; Cohort 2: 5 mg once daily, 2 weeks on 1 week off, n=3
  Tmax: 3.00 (0.55-4.00) h
[1]; [4]
  AUCinf: 3649.06±4836.80 (132.5%) [144.88-9167.47] h*ug/L
  AUClast: 2519.97±3026.42 (120.1%) [127.22-5922.09] h*ug/L
  Cmax: 204.17±173.02 (84.7%) [33.40-141.00] ng/mL
  T1/2β: 9.94±3.14 (31.6%) [7.23-13.39] h
  Vz: 333.81±505.10 (151.3%) [21.07-916.53] L
[1]; Cohort 3: 10 mg once daily, 2 weeks on 1 week off, n=3
  Tmax: 3.00 (2.00-8.02) h
[1]; [5]
  AUCinf: 3039.02±674.82 (22.2%) [2368.04-3717.62] h*ug/L
  AUClast: 2754.42±727.50 (26.4%) [1991.23-3440.00] h*ug/L
  Cmax: 380.00±146.81 (38.6%) [228.00-521.00] ng/mL
  T1/2β: 7.91±2.11 (26.7%) [6.25-10.28] h
  Vz: 80.18±39.12 (48.8%) [55.73-125.29] L
[1]; Cohort 4: 20 mg once daily, 2 weeks on 1 week off, n=3
  Tmax: 3.00 (2.08-4.00) h
[1]; [6]
  AUCinf: 12875.06±5816.24 (45.5%) [7832.01-19189.58] h*ug/L
  AUClast: 10232.09±3651.74 (35.7%) [7292.97-14320.11] h*ug/L
  Cmax: 1128.00±443.52 (39.3%) [862.00-1640.00] ng/mL
  T1/2β: 9.98±3.76 (37.7%) [5.82-13.13] h
  Vz: 23.05±4.34 (18.8%) [19.75-27.97] L
[1]; Cohort 5: 20 mg once daily continuously, n=3
  Tmax: 2.93 (0.50-3.00) h
[1]; [7]
  AUCinf: 15825.90±13925.93 (88.0%) [7229.41-31893.03] h*ug/L
  AUClast: 14369.29±12181.96 (84.8%) [6801.11-28421.88] h*ug/L
  Cmax: 2043.33±1547.82 (75.7%) [1110.00-3830.00] ng/mL
  T1/2β: 6.87±0.36 (5.3%) [6.64-7.29] h
  Vz: 37.48±21.36 (57.0%) [13.19-53.37] L
[1]; Cohort 6: 40 mg once daily continuously, n=3
  Tmax: 2.00 (2.00-3.00) h
[1]; [8]
  AUCinf: 31699.75±12751.32 (40.2%) [17104.01-40676.73] h*ug/L
  AUClast: 27733.70±10788.09 (38.9%) [15336.37-34987.13] h*ug/L
  Cmax: 3643.33±582.27 (16.0%) [2980.00-4070.00] ng/mL
  T1/2β: 8.29±0.47 (5.7%) [7.81-8.75] h
  Vz: 35.61±20.31 (57.0%) [23.61-59.06] L
[1]; Cohort 7: 80 mg once daily continuously, n=3
  Tmax: 1.03 (1.00-3.00) h
[1]; [9]
  AUCinf: 28572.20±24412.45 (85.4%) [12537.00-56667.70] h*ug/L
  AUClast: 23020.92±16230.34 (70.5%) [12129.81-41674.88] h*ug/L
  Cmax: 2923.33±1179.25 (40.3%) [2030.00-4260.00] ng/mL
  T1/2β: 8.56±4.44 (51.9%) [4.97-13.53] h
  Vz: 61.75±17.99 (29.1%) [41.34-75.31] L
[1]; Cohort 8: 120 mg once daily continuously, n=3
  Tmax: 2.00 (1.95-2.07) h
[1]; [10]
  AUCinf: 48298.24±7488.56 (15.5%) [39493.27-55858.21] h*ug/L
  AUClast: 42174.71±5663.76 (13.4%) [35508.61-48321.59] h*ug/L
  Cmax: 5295.00±628.68 (11.9%) [4820.00-6220.00] ng/mL
  T1/2β: 8.15±1.31 (16.1%) [6.18-8.88] h
  Vz: 39.02±4.02 (10.3%) [36.11-44.88] L
[1]; Cohort 9: 160 mg once daily continuously, n=4
  Tmax: 2.00 (1.00-3.00) h
[1]; [11]
  AUCinf: 37514.17±11745.33 (31.3%) [23968.05-44861.59] h*ug/L
  AUClast: 35064.82±10936.96 (31.2%) [22440.89-41684.26] h*ug/L
  Cmax: 4243.33±1097.38 (25.9%) [2980.00-4960.00] ng/mL
  T1/2β: 5.86±0.27 (4.5%) [5.63-6.15] h
  Vz: 58.25±20.01 (34.4%) [45.93-81.34] L
[1]; Cohort 10: 240 mg once daily continuously, n=3
  Tmax: 2.03 (1.95-3.87) h
[1]; day 14, Cohort 1: 2 mg once daily, 2 weeks on 1 week off, n=3, mean±SD
  AUCinf,ss: 1736.03±1605.80 (92.5%) [457.71-3538.38] h*ug/L
